Reference: patent US8691946B2, “Methods and compositions for soft tissue repair” (Affinergy, LLC, priority 2009, dated 2014)
Ends that are not written are not given here.

Legend:
[1] = test system: human ASCs (adipose-derived mesenchymal stem cells); assay: Biotinylated peptide binding by flow cytometry (Neutravidin-PE); conditions: biotinylated peptide 25 μM, 30 min, 4° C.
Description: (§1) The synthetic biotinylated cell binding peptide SEQ ID NO: 4 was examined for its ability to specifically bind MSCs compared to a number of other cells types including adipose-derived mesenchymal stem cells (ASCs), dermal fibroblasts, rodent MSCs, red blood cells, monocytes, lymphocytes and granulocytes. The cell binding peptide was biotinylated as described herein at Example 2. Cultured cells of each type were either purchased (ASCs and dermal fibroblasts) or isolated from rodent bone marrow (rodent MSCs) or human blood. Cells were first harvested and resuspended at 10^6/mL in PBS+2% fetal bovine serum (FBS). An aliquot of cells (50 μL) was incubated in 50 μL of peptide solution (25 μM in PBS+FBS) for 30 min at 4° C. Cells were then washed twice in PBS+FBS with 300×g centrifugation for 5 min between washes. Fluorescently-tagged neutravidin (Neutravidin-PE from INVITROGEN) was then added to the cells to label biotinylated peptide bound to cells. Neutravidin-PE was diluted 1:250 from stock and applied at 50 μL to cells. Cells were then washed in PBS+FBS, and acquired on a BD […]. Peptide reactivity was then measured as percent positivity relative to Neutravidin-PE staining without the addition of biotinylated peptide.

human MSCs [2] = assay: as above; conditions: biotinylated peptide 25 μM, 30 min, 4° C.
Description: as §1

dermal fibroblasts = assay: as above; parameters: species or system human; conditions: biotinylated peptide 25 μM, 30 min, 4° C.
Description: as §1

[3] = test system: endothelial colony forming cells (ECFCs); assay: Biotinylated peptide binding to endothelial and other cells by flow cytometry; parameters: species or system human; conditions: biotinylated peptide 10 μM
Protocol: (§2) The synthetic biotinylated binding peptide SEQ ID NO: 4 was further examined for its ability to bind endothelial cells compared to other cell types (see FIG. 16). […] ECFCs are clonally expanded cells isolated from human umbilical cord blood, and are considered highly proliferative endothelial progenitor cells (EPCs) based on their clonogenic and proliferative potential. In another experiment, binding peptide SEQ ID NO: 4 was assayed for its ability to selectively isolate endothelial cells versus smooth muscle cells in the presence of whole blood. HUVECs or UASMCs were incubated in the presence of medium containing 20% whole blood and binding peptide SEQ ID NO: 4-conjugated magnetic beads (via biotin-SA) for 30 min. The solutions containing the bead-peptide-cell complexes were then passed through a […] LS column in a magnetic field. The column was washed, and the remaining peptide-bound cells were then released from the magnetic field and counted.

peripheral blood cells = assay: as above; parameters: species or system human; conditions: biotinylated peptide 10 μM
Protocol: as §2

[4] = test system: human umbilical vein endothelial cells (HUVECs); assay: as above; conditions: biotinylated peptide 10 μM
Protocol: as §2

[5] = test system: umbilical artery smooth muscle cells (UASMCs); assay: as above; conditions: biotinylated peptide 10 μM
Protocol: as §2

HUVECs or UASMCs = assay: Selective isolation of endothelial versus smooth muscle cells with peptide-conjugated magnetic beads in whole blood; assay type: cell-based, human; conditions: medium containing 20% whole blood, 30 min
Protocol: as §2

human MSCs [6] = assay: Capture of cultured MSCs on peptide-coated streptavidin microbeads (LS columns); assay type: cell-based; conditions: 160,000 cultured human MSCs
Protocol: In this experiment the ability of the biotinylated cell binding peptide SEQ ID NO: 4 to capture human MSCs from a homogeneous cultured cell population was examined. The cell binding peptide SEQ ID NO: 4 was biotinylated as described herein at Example 2. The cell binding peptide SEQ ID NO: 4, and a non-binding control peptide, were added to separate 300 μl volumes of […] BIOTEC Streptavidin microbeads at a concentration of 20 μM. These beads are made from iron filings, coated with a dextran coating which is functionalized with streptavidin moieties. Peptide was incubated with beads for 45 min on ice. The 300 μl of peptide coated microbeads were added to pre-equilibrated LS columns outside of the magnetic field to evenly distribute the magnetic beads throughout the columns. Columns were then placed into a magnetic field, and excess peptide was washed away with buffer while retaining the peptide coated microbeads. Cultured and expanded human MSCs from bone marrow aspirate (160,000 cells; LONZA) were added to each LS column and allowed to pass through by gravity flow. Flowthrough was collected and cycled through the columns 5 times, after which the columns were washed with 5 ml buffer. […] The collected flowthrough with 5 ml wash and eluted cells were spun down, resuspended in a smaller volume, and counted by hemacytometer (see FIG. 17). […]

[7] = test system: MSCs from bone marrow aspirate; assay: Capture of MSCs from bone marrow aspirate with biotinylated peptide and magnetic beads (CFU); assay type: cell-based
Protocol: This experiment was performed to examine the ability of cell binding peptide SEQ ID NO: 4 to capture MSCs directly from bone marrow aspirate in comparison to two separate antibodies against the CD105 I antigen (CD105) and the MSCA-1 stem cell antigen (MSCA-1). This experiment employed biotinylated peptides with streptavidin-coated […] magnetic beads. The peptides were biotinylated as described herein at Example 2. […] For the antibody capture experiment, magnetic beads having covalently attached CD105 or MSCA-1 antibody were employed ([…]). Prior to incubation with the peptides and antibodies, bone marrow aspirate (BMA) was mixed with 5 volumes of 10 mM ammonium chloride for 1-2 min at room temperature to lyse red blood cells. The lysate was centrifuged for 5 min at 300×g and the supernatant discarded. The cell pellet was washed with wash buffer (PBS+0.5% bovine serum albumin+0.5 mM EDTA) and cells were resuspended in […] peptide at a concentration of 10^8 per mL. For peptide binding studies, the cell suspension was incubated with the biotinylated peptides for 30 min at 4° C. to allow for binding. After incubation, cells were spun down at 300×g for 5 min, and peptide solution was aspirated. Cells were then rinsed twice with wash buffer, with centrifugation between washes. […] Colony forming units (CFUs) were counted after 14 days in culture. […]

HUVECs = assay: Endothelial cell phenotype and anti-thrombogenic protein secretion (flow cytometry, ELISA); assay type: cell-based, human; conditions: HUVECs on collagen with 10 μM free peptide, 24 hours
Protocol: Once immobilized on a vascular graft, endothelial cells must retain their characteristic properties of promoting endothelialization. Therefore, the phenotype, viability, and anti-thrombogenic protein expression profiles were evaluated for endothelial cells in the presence of collagen modified with the endothelial cell binding peptide SEQ ID NO: 4 (generated according to Example 7 using BS^3 reagent). […] Specifically, HUVECs were plated on SEQ ID NO: 4 peptide-modified collagen, collagen with 10 μM free SEQ ID NO: 4 peptide or collagen alone for 24 hours. Flow cytometry was performed using a BD […], and ELISAs were performed according to manufacturers instructions. (FIGS. 22A & 22B). Tissue-type Plasminogen Activator (t-PA) and 6-keto Prostaglandin F1a protein expression levels secreted in this assay are aligned with other reports on cultured HUVECS (Kimura and Yokoi-Hayashi, Biochim Biophys Acta, 1996, 1310:1-4; Merhi-Soussi et al., J Leukoc Biol, 2000, 68:881-9).

[8] = test system: MSCs captured from bone marrow; assay: Adipocyte differentiation of captured MSCs (Oil Red O); assay type: cell-based; conditions: 21 days adipocyte differentiation medium
Protocol: After capture of MSCs using cell binding peptide SEQ ID NO: 4 with the […] magnetic system according to Example 6, the ability of the captured cells to differentiate into an adipocyte lineage was examined. The MSCs present in the […] column eluants (see Example 6) were cultured for 21 days in complete medium (DMEM, 10% FBS, 100 units/mL penicillin, 100 μg/mL streptomycin, and 2 mM glutamine) supplemented with 0.5 mM isobutyl methylxanthine, 1 μM dexamethasone, 10 μM insulin, 200 μM indomethacin, and 1% antibiotic/antimycotic. Following the 21 day incubation, the cells were fixed in 4% paraformaldehyde in PBS for 15 minutes, washed in 60% isopropanol for 5 minutes, and stained with Oil Red O (SIGMA) for 10 minutes to determine the extent of adipogenesis (see FIG. 26, panels A (undifferentiated MSCs) and panel B (adipocyte differentiated MSCs)). The image of the adipose differentiated cells (FIG. 26, panel B) contains a larger magnification inset where the lipid vacuoles are clearly visible.

[9] = test system: MSCs captured from bone marrow; assay: Osteoblast differentiation of captured MSCs (Alizarin Red S); assay type: cell-based; conditions: 14 days osteoblast differentiation medium
Protocol: For osteogenic differentiation, the MSCs present in the […] column eluants (see Example 6) were cultured for 14 days in complete medium supplemented with 0.1 μM dexamethasone, 50 μM ascorbate-2-phosphate, 10 mM β-glycerophosphate, and 1% antibiotic/antimycotic. Calcium mineralization was measured by Alizarin Red S (SIGMA) staining to reveal mineralizing osteoblasts (see FIG. 26, panel C (undifferentiated MSCs) and panel D (osteoblast differentiated MSCs)).

[10] = test system: MSCs captured from bone marrow; assay: Chondrocyte differentiation of captured MSCs (aggrecan immunostaining); assay type: cell-based; conditions: 24 days CHONDRODIFF medium
Protocol: To examine chondrocyte differentiation, the MSCs present in the […] column eluants (see Example 6) were pelleted by centrifugation at 150×g for 5 minutes. Cells were washed once with 1 ml MACS NH CHONDRODIFF Medium without disturbing the pellet. Cells were spun again and 1 mL CHONDRODIFF Medium was added to each pellet. Every third day, medium was aspirated and replaced with fresh pre-warmed medium. After 24 days in culture, cells exposed to CHONDRODIFF medium formed cartilage plugs or nodules, whereas control cells formed only loose or small nodules. Cells were washed once with PBS and fixed in neutral buffered formalin overnight. Sections were embedded in paraffin and sectioned at 5 microns. Sections were examined by hemotoxylin and eosin staining (data not shown). Sections were further examined by immunostaining for aggrecan, a major structural component of cartilage. In FIG. 27, sections from the periphery (panels A and B) or center (panels C and D) were incubated with an antibody against aggrecan (ABCAM) (panels B and D) or with secondary detection reagents only as a control (panels A and C), then counterstained with DAPI to reveal cell nuclei. […] Control images of captured cells grown in the absence of differentiation medium could not be taken due to the small and loose nature of nodules.

## SSFWDVCQGDGTCYGGGSR (not fully specified; cysteine pairing not given here) [SEQ ID NO: 4, tested biotinylated (C-terminal GSSGK(biotin)) or attached to substrates via spacer and lysine]
[1]
  binding to human ASCs: high binding
Human MSCs [2]
  binding to human MSCs (percent positivity relative to Neutravidin-PE alone): high binding
Dermal fibroblasts
  binding to dermal fibroblasts: high binding
[3]
  cross-reactivity with ECFCs: cross-reacted strongly
Peripheral blood cells
  cross-reactivity with peripheral blood cells: no cross-reactivity
[4]
  cross-reactivity with HUVECs: cross-reacted strongly
[5]
  cross-reactivity with UASMCs: weakly
HUVECs or UASMCs
  HUVECs isolated compared to UASMCs: 8 fold
Human MSCs [6]
  capture of MSCs: approximately 70%
[7]; compared with CD105 and MSCA-1 antibody beads
  MSC capture from bone marrow aspirate (CFUs after 14 days): as efficient as capture by either of the CD105 or MSCA-1 antibodies
[7]; compared with CD105 isolated cells
  immunoreactivity of captured cells (CD29, CD44, CD73, CD105, CD166, CD90, CD45, CD34): no changes were observed
HUVECs
  endothelial cell phenotype and anti-thrombogenic protein secretion: maintained their endothelial cell phenotype and their ability to secrete anti-thrombogenic proteins
[8]
  adipogenesis of captured MSCs: adipogenesis pathway remains intact
[9]
  osteogenic differentiation of captured MSCs: osteogenic pathway remains intact
[10]
  aggrecan in nodules formed from captured MSCs: aggrecan could be detected
